These results are taken from PubChem BioAssay (NCI).

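Five concentrations, 48 hours, 96-well plates. GI50 = concentration required for 50% inhibition of growth. TGI marks complete inhibition of growth.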

The TGI is the concentration giving total growth inhibition. A low value points to more potent growth arrest. The term GI50 denotes the concentration at which growth is held to half of that of the control.

Some test systems named below: SF-268 CNS; UACC-62 melanoma; UACC-257 melanoma; NCI-H226 lung; EKVX NSCLC; SK-MEL-5 melanoma; HCC-2998 colon; U251 CNS; SF-295 CNS; MOLT-4 leukemia.
What all share (assay): DTP human tumour cell line panel, 48 h

`N#CC(N)(C(=O)C(=O)NCCCNC(=O)C(=O)C(N)(C#N)c1ccc(Cl)cc1)c1ccc(Cl)cc1` (stereo not given): the TGI in the assay on SF-268 CNS, with UACC-62 melanoma, with UACC-257 melanoma, in the assay on NCI-H226 lung, with EKVX NSCLC and in the assay on SK-MEL-5 melanoma was above 100 µM throughout. For the same compound, the concentration for total growth inhibition (TGI) in the assay with HCC-2998 colon, in the assay with U251 CNS, in the assay with SF-295 CNS and in the assay with MOLT-4 leukemia was above 100 µM throughout.
`CN1CCN(Cc2ccc(NC(=O)c3cncc(C#Cc4cncc5[nH]ncc45)c3)cc2C(F)(F)F)CC1`: the GI50 in the assay with SF-268 CNS is 0.899 µM; in the assay on UACC-62 melanoma it was 0.336 µM; with UACC-257 melanoma it was 0.5 µM; with NCI-H226 lung it was 0.206 µM; in the assay on EKVX NSCLC, 1.46 µM; in the assay with SK-MEL-5 melanoma, 1.17 µM. Moreover, the GI50 is 0.777 µM in the assay with HCC-2998 colon, 1.53 µM with U251 CNS, 1.73 µM in the assay with SF-295 CNS and 0.773 µM in the assay on MOLT-4 leukemia. Also, the concentration for total growth inhibition (TGI) in the assay with SF-268 CNS turned out to be 3.96 µM; with UACC-62 melanoma it was 1.31 µM; in the assay on UACC-257 melanoma it was 4.48 µM; in the assay on NCI-H226 lung, 2.86 µM; in the assay on EKVX NSCLC it was 6.27 µM; with SK-MEL-5 melanoma it was 4.58 µM. Moreover, the total growth inhibition concentration (TGI) with HCC-2998 colon stood at 5.88 µM; in the assay with U251 CNS, 7.76 µM; in the assay on SF-295 CNS it was 7.4 µM; with MOLT-4 leukemia, 4.44 µM.
With `CCN(CC)CCn1nc2c3c(cccc3c1=O)-c1ccccc1-2`, the GI50 is 2.87 µM in the assay on SF-268 CNS; 1.98 µM in the assay on UACC-62 melanoma; 1.96 µM in the assay with UACC-257 melanoma; 1.18 µM in the assay on NCI-H226 lung; 2.33 µM with EKVX NSCLC; 1.51 µM in the assay with SK-MEL-5 melanoma. The GI50 with HCC-2998 colon was 2 µM; in the assay with U251 CNS, 2.18 µM; in the assay with SF-295 CNS, 1.39 µM; with MOLT-4 leukemia, 1.44 µM. The TGI worked out at 21.3 µM in the assay on SF-268 CNS; 7.81 µM with UACC-62 melanoma; 10.7 µM in the assay with UACC-257 melanoma; 2.58 µM in the assay on NCI-H226 lung; 38.7 µM in the assay with EKVX NSCLC; 4.08 µM in the assay on SK-MEL-5 melanoma. Further, the TGI with HCC-2998 colon stood at 11 µM; in the assay on U251 CNS, 24.7 µM; with SF-295 CNS, 7.45 µM; in the assay on MOLT-4 leukemia, 8.46 µM.
For `O=[N+]([O-])C1(CO)COC2(OC1)c1ccccc1-c1ccccc12`, the TGI was above 93.2 µM with SF-268 CNS; above 100 µM in the assay with UACC-62 melanoma; above 100 µM with UACC-257 melanoma; above 100 µM with NCI-H226 lung; above 100 µM in the assay with EKVX NSCLC; above 100 µM in the assay with SK-MEL-5 melanoma. Besides, the TGI in the assay with HCC-2998 colon is above 100 µM; in the assay with U251 CNS, above 100 µM; in the assay with SF-295 CNS, above 100 µM; in the assay on MOLT-4 leukemia, above 85.2 µM.
In the case of `CCN(Cc1cccc(C)c1)c1ccc(CO)c(Cl)c1`, the GI50 was 16.2 µM with SF-268 CNS; 0.158 µM in the assay with UACC-62 melanoma; 0.188 µM in the assay with UACC-257 melanoma; 0.121 µM with NCI-H226 lung; 14.6 µM in the assay with EKVX NSCLC; 9.25 µM in the assay with SK-MEL-5 melanoma. In addition, the GI50 in the assay on HCC-2998 colon was 12.1 µM; in the assay on U251 CNS, 2.27 µM; with SF-295 CNS, 1.51 µM; with MOLT-4 leukemia it was 18.5 µM. Further, the TGI with SF-268 CNS was determined as 31.1 µM; with UACC-62 melanoma it was 1.11 µM; with UACC-257 melanoma, 0.525 µM; in the assay on NCI-H226 lung it was 0.252 µM; in the assay on EKVX NSCLC, 30 µM; in the assay with SK-MEL-5 melanoma, 22 µM. The TGI in the assay with HCC-2998 colon is 25.4 µM; in the assay on U251 CNS it was 16.8 µM; with SF-295 CNS it was 16.4 µM; with MOLT-4 leukemia, above 64.3 µM.
Turning to `Cn1ccnc1C(=O)/C=C/c1ccc(CC(=O)Nc2cc(F)c(F)c(F)c2)cc1`, the GI50 in the assay on SF-268 CNS is 1.78 µM; with UACC-62 melanoma it was 2.14 µM; with UACC-257 melanoma, 3.59 µM; with NCI-H226 lung, 3.4 µM; with EKVX NSCLC it was 3.51 µM; in the assay on SK-MEL-5 melanoma, 3.25 µM. The GI50 in the assay with HCC-2998 colon is 2.55 µM; in the assay with U251 CNS it was 0.837 µM; with SF-295 CNS, 6.63 µM; in the assay on MOLT-4 leukemia it was 0.84 µM. For the same compound, the total growth inhibition concentration (TGI) in the assay with SF-268 CNS turned out to be 9.57 µM; in the assay on UACC-62 melanoma, 9.59 µM; in the assay with UACC-257 melanoma it was 10.1 µM; in the assay with NCI-H226 lung, 12.3 µM; with EKVX NSCLC, 7.41 µM; in the assay on SK-MEL-5 melanoma, 6.47 µM. Further, the TGI in the assay with HCC-2998 colon was 6.04 µM; in the assay with U251 CNS it was 3.2 µM; with SF-295 CNS, above 25 µM; in the assay on MOLT-4 leukemia it was 12.1 µM.
